In patent US20070270392A1, “Use of a Cyclopentenone Prostaglandin for Delaying the Onset and/or Preventing the Continuation of Labour” (Imperial College Innovations Limited, priority 2003, published 2007):

How the values were obtained:
Assay type in all cases: cell-based, human
[1] = test system: NF-κB; experiment: EMSA of NF-κB DNA binding in nuclear extracts of treated myometrial cells; details: for IL-1β-induced NF-κB DNA binding: myometrial cells, treated 2 h, IL-1β stimulation 15 min
Procedure: Electro-mobility shift assay (EMSA) analysis of NF-κB DNA binding in nuclear protein extracts from (A) myometrial cells, (B) L+amnion cells, and (C) L− amnion cells treated with 15dPGJ2 or vehicle for 2 h+/−IL-1b stimulation (15 min). Consensus kB probe used to assess NF-κB DNA binding, and consensus Oct-1 probe used as control.
Consensus κB probe used to assess NF-κB DNA binding, consensus Oct-1 probe used as control. For supershift analysis, extracts were preincubated with antibodies against p50 or p65.
EMSA analysis of nuclear protein extracts from myometrial cells treated with (A) WY-14643 or vehicle, and (B) high doses of troglitazone, WY-14643 or vehicle for 2 h followed by IL-1b stimulation (15 min). Consensus κB probe used to assess NFκB DNA binding, consensus Oct-1 and Sp-1 probes used as controls.
EMSA analysis of nuclear protein extracts from (A) myometrial cells, and (B) amnion cells treated with PGA1 or vehicle for 2 h followed by IL-1b stimulation (15 min). Consensus κB probe used to assess NFκB DNA binding, consensus Oct-1 probe used as control. For supershift analysis, extracts were preincubated with antibodies against p50 or p65.
Analysis of nuclear protein extracts from myometrial cells treated with PGE2 or vehicle for 2 h+/−TNFα or IL-1b stimulation (15 min). (A) EMSA using consensus κB probe. (B) Western immunoblot probing for nuclear p65.
EMSA analysis of nuclear protein extracts from (A) L− amnion cells and (B) myometrial cells treated with vehicle, PGE2 or IL-1β. Consensus κB probe used.
(§1) Myometrial tissue was collected at term from the upper margin of uterine incision at the time of lower segment caesarean section either prior to the onset of labour (L−) or […] (L+). L+ samples were collected by Dr Mark Johnson and Dr S Soorrana at Chelsea & Westminster Hospital. Myometrial tissue was dissected, rinsed in PBS, and digested in serum-free DMEM containing 15 mg/ml collagenase 1A (Sigma), 15 mg/ml collagenase X, and 50 mg/ml bovine serum albumin for 45 min at 37° C. The cell suspension was filtered through a cell strainer, centrifuged at 400 g for 5 min, and the pellet re-suspended and plated out in DMEM, 10% FCS (Helena BioScience), 1% L-glutamine, 1% penicillin-streptomycin. Cells were used between passage numbers 1-4.
Nuclear and cytosolic protein extracts were obtained from cultured amnion cells as described by Schreiber et al (1989). For nuclear/cytosolic fractionation, confluent cell monolayers were scraped and lysed using a buffer containing 10 mM HEPES, 10 mM KCl, 0.1 mM EDTA, 0.1 mM EGTA, 2 mM DTT, 1% (v/v) NP-40 and complete protease inhibitor tablets (CPIs, Roche), diluted to manufacturer's instructions. Cell lysates were incubated on ice for 10 min and NP-40 added to a final concentration of 1% (v/v). Lysates were vortexed for 10 secs and centrifuged for 30 secs at 4° C., 12000 g. The supernatants were retained as the cytosolic protein extracts. The pellets were resuspended in buffer containing 10 mM HEPES, 10 mM KCl, 0.1 mM EDTA, 0.1 mM EGTA, 2 mM DTT, 400 mM NaCl, 1% NP-40 (v/v) and CPIs. Samples were shaken vigorously for 15 min in an ice bath. The nuclear protein extracts were obtained in the supernatant following a 5 min centrifugation at 4° C., 12000 g.
Sense and antisense strands (175 nmole/ml each) were incubated in annealing buffer (10 mM Tris-HCl pH7.5, 100 mM NaCl, 1 mM EDTA) for 10 min at 65° C., and allowed to cool at room temperature for 2 h. 3.5 pmole double-stranded oligonucleotides were end-labelled with 0.37 MBq ^32P(γATP) by incubating for 30 min at 37° C. with T4 polynucleotide kinase. Labelled oligonucleotides were recovered by centrifugation at […] for 2 min through MicroSpin G-25 or G-50 sephadex columns (Amersham Biosciences). […]

[2] = test system: PPAR-γ; experiment: Western immunoblot of PPAR-γ protein expression in myometrial and amnion cells
Procedure: Western immunoblots of (A) nuclear and cytosolic protein extracts from myometrial and amnion cells with or without 15 min IL-1β stimulation, and (B) nuclear extracts of myometrial cells treated with 15d-PGJ2+/−IL-1b. Probing with antibody to PPARγ.
(§2) Protein samples (20-70 μg) were mixed with Laemmli sample buffer (1:1) containing β-mercaptoethanol (5%), and boiled for 5 min. Proteins were then separated by SDS-PAGE (12-14% gels) and transferred onto PVDF membrane (Amersham Pharmacia Biotech). The membranes were blocked overnight in 5% non-fat milk prepared in PBS-T buffer, at 4° C. The blots were incubated with the primary antibody in 1% non-fat milk in PBS-T buffer for 1 h, and washed three times (10 min each) in PBS-T with vigorous shaking. The blots were then incubated with HRP-conjugated secondary antibody (diluted 1:2000 in 1% non-fat milk in PBS-T buffer) for 1 h and washed three times (10 min each) in PBS-T. Signal detection was achieved using enhanced chemi-luminescence (ECL plus system, Amersham Pharmacia Biotech) according to manufacturer's instructions.
30-50 μg protein extracts were subjected to SDS-PAGE and Western immuno-blotting. Secondary antibodies were IgG-HRP and ECL Plus detection kit (Amersham Pharmacia Biotech, Amersham Place, Little Chalfont, Bucks, HP7 9NA) was used for visualisation.

[3] = test system: COX-2; experiment: Western immunoblot of IL-1β-induced COX-2 protein expression in myometrial cells; details: treated 2 h, IL-1β 6 h
Procedure: as §1
as §2, with “The membranes were blocked overnight in 5% non-fat milk prepared in PBS-T buffer, at 4° C. The blots were incubated with the primary antibody in 1% non-fat milk in PBS-T buffer for 1 h, and washed three times (10 min each) in PBS-T with vigorous shaking.” left out, “instructions. […]” for “instructions.”

Structure (SMILES) | IL-1β-induced NF-κB DNA binding [1] | PPAR-γ protein expression [2] | IL-1β-induced COX-2 expression [3] | Protein binding to a consensus Oct-1 or Sp-1 probe (control) ([1]; control for NF-κB-specific effect)
CCCCC[C@H](O)/C=C/[C@H]1C=CC(=O)[C@@H]1CCCCCCC(=O)O [PGA1, prostaglandin A1] | able to inhibit |  |  | 
CCCCCC=CC=C1C(=O)C=C[C@@H]1CC=CCCCC(=O)O [15d-PGJ2, 15-deoxy-Δ^12,14prostaglandin J2] | inhibited | not affected | inhibited | unaffected
